From EP3974434B1, “MACROLIDE DERIVATIVES, PREPARATION METHOD AND APPLICATION THEREOF” (Zhejiang Hisun Pharmaceutical Co., Ltd., priority 2019, dated 2020) come the findings set out here.

The structures appear in SMILES notation. Like-named read-outs stand apart in the source and are kept apart here.

Data set [1] can be described thus: Pharmacokinetic study on ICR mice (plasma, LC-MS/MS). The data set is classed as in vivo. As to conditions: male, mouse; for bioavailability: 5 mg/kg oral intake vs 1 mg/kg injection, read-out: Bioavailability F(%); for AUC(0-inf): read-out: Area under curve AUC0-∞; for Cmax: read-out: Blood concentration Cmax; for half-life: read-out: Half-life T1/2(h) (converted); for clearance: read-out: Clearance rate. On the procedure:
ICR mice, male, 29.0 g to 33.8g, purchased from Beijing Charles River Laboratory Animal Technology Co., Ltd.
Intravenous injection group: an appropriate amount of drug was weighed, and added with mixed solvent (DMA: 30% Solutol HS-15: Saline = 10: 10: 80 (v/v/v)) to prepare the drug with a final concentration of 0.2 mg/mL.
Oral gavage administration group: an appropriate amount of drug was weighed, added with an appropriate amount of sodium carboxymethyl cellulose (CMC-Na, containing 0.5% Tween 80), vortex shaked, and ultrasonically prepared into […] suspension.
For ICR mice, each compound to be tested was divided into an intravenous injection group (9 mice in each group) and an intragastric group (9 mice in each group). The ICR mice were fasted overnight and then administered by orbital intravenous injection (administration dose of 1 mg/kg, and administration volume of 5 mL/kg) and administered by intragastric injection (administration dose of 5 mg/kg, and administration volume of 10 mL/kg), and ate 4 hours after administration.
About 0.2 mL of blood was collected via jugular vein before administration and 0.083 hour, 0.25 hour, 0.5 hour, 1 hour, 2 hours, 4 hours, 8 hours, 12 hours and 24 hours after administration, and heparin sodium was used for anticoagulation. The collected blood samples were placed on ice, and plasma was separated by centrifugation (centrifugation condition: 1500 g, 10 minutes). The collected plasma was stored at-40°C to -20°C before analysis.
LC-MS/MS was used to determine the contents of different compounds to be tested in mouse plasma after intravenous injection and intragastric administration.
The pharmacokinetic parameters of the compounds of the present invention and the positive control can be seen in Table 8. Table 8 Results of pharmacokinetic parameters

A further data set deals with T1, ROS1 (Homo sapiens, UniProt P08922).
T1 construct: purchased SignalChem R14-11G-10
The data set is described as follows: HTRF KinEASE-TK kinase activity inhibition assay, ROS1. The data set is classed as biochemical. As to conditions: ATP 1 µM. The text has this: The following method was used to determine the inhibition degrees of the compounds of the present invention on the activity of recombinant human ROS1 kinase in vitro. In this method, HTRF®KinEASE-TK tyrosine kinase kit (article No. 62TK0PEB) of Cisbio company was used, the principle of the kit was based on time-resolved fluorescence resonance energy transfer (TF-FRET), and the inhibition of the compounds on the activity of the ROS1 kinase was reflected by determining a phosphorylation degree of a biotinylated polypeptide substrate mediated by ROS1 kinase. For detailed experimental operation, please refer to the kit instruction. […]
The experimental flow was briefly described as follows: a test compound was first dissolved in DMSO to prepare a storage solution, and then diluted in gradient with a buffer provided in the kit. […] An ATP Km value concentration of each ROS1 protein was determined by using an ATP solution diluted in gradient (Sangon Biotech (Shanghai) Co., Ltd., A600311). […] After incubation, fluorescence intensity values of each well at an excitation wavelength of 304 nm, and emission wavelengths of 620 nm and 665 nM were determined in a TF-FRET mode on a microplate reader, and the fluorescence intensity ratio 665/620 of each hole was calculated. […]
(TR-FRET usually uses a lanthanide donor and a delayed reading to cut background.)

[2] abbreviates: intravenous, 1 mg/kg, injection.

Usually bioavailability stands for the share of a dose that reaches the circulation, judged against a reference dose that is usually intravenous. As usually defined, the clearance is the rate of elimination divided by the concentration. As usually defined, the IC50 is the point on the concentration scale where inhibition reaches its midpoint. High values mean a need for much substance, low ones inhibition by little substance.

T1 sequence (P08922 28-2347): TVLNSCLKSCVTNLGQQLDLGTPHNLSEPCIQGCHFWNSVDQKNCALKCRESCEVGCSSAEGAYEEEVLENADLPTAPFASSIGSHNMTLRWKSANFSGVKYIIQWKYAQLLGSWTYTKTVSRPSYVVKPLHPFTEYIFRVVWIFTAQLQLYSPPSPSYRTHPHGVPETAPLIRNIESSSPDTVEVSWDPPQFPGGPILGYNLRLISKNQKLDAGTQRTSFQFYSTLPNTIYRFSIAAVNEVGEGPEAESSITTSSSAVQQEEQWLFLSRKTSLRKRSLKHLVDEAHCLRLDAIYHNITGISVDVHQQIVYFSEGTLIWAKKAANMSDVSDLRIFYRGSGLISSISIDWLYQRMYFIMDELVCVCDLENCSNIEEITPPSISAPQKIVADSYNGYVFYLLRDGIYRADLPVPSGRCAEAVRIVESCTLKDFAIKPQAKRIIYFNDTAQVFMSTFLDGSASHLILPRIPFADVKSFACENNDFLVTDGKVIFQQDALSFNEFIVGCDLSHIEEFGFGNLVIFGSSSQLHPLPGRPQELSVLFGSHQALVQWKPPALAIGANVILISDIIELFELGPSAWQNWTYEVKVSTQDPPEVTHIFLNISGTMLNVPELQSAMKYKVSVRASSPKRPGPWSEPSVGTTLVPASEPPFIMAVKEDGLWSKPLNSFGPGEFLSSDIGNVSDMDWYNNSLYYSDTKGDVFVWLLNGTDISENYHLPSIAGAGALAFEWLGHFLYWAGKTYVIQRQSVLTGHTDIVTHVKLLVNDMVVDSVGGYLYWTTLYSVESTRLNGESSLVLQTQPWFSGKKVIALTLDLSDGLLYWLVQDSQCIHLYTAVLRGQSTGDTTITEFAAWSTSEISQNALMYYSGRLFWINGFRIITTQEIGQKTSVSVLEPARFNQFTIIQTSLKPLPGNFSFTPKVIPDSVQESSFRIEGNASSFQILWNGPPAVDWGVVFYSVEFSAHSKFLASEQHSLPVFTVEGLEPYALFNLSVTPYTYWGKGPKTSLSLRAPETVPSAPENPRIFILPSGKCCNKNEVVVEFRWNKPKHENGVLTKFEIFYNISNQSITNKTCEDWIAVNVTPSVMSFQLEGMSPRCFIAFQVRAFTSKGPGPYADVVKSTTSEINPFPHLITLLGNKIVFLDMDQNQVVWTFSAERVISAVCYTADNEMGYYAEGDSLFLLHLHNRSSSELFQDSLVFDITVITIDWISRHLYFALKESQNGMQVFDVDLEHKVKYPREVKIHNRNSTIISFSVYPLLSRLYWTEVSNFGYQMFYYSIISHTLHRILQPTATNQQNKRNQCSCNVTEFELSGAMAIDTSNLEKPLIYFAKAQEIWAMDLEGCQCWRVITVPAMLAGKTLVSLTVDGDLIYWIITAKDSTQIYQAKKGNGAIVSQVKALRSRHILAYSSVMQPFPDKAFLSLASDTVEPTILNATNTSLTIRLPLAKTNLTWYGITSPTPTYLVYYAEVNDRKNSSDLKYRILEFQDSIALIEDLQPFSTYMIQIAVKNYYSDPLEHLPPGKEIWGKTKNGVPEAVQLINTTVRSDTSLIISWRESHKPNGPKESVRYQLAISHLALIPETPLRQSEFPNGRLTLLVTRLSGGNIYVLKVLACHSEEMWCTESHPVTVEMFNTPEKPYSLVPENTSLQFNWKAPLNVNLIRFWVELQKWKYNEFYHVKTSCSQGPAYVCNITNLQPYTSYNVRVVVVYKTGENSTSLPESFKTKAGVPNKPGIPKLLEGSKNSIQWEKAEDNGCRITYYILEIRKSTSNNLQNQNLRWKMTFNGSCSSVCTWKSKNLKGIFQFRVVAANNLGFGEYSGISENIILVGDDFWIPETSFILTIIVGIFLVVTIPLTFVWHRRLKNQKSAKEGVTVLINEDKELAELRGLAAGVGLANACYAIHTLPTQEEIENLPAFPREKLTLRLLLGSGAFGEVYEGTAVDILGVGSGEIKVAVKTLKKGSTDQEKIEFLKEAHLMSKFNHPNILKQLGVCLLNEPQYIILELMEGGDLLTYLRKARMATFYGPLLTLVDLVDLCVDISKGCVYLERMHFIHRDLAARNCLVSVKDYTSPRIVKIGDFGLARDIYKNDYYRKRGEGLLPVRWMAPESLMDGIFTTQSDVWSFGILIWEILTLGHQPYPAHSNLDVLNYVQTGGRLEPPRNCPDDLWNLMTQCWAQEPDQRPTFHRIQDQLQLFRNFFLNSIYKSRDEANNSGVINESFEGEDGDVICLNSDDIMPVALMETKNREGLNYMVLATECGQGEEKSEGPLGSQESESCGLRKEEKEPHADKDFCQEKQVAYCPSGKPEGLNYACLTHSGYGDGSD

As for `C[C@H]1Nc2ccn3ncc(c3n2)C(=O)NC[C@@]2(C)Cc3cc(F)cc1c3O2` [Example 8, (3R,11R)-6-fluoro-3,11-dimethyl-10-oxa-2,13,17,1 8,21-pentaazapentacyclo[13.5.2.1^8,11.0^4,9.0^18,22]tric osa-1(21),4,6,8,15(22),16,19-heptaen-14-one], the bioavailability in data set [1] stood at 53%. For the same compound, in data set [1] (5 mg/kg, oral intake), the AUC(0-inf) turned out to be 5620 ng·h/mL, the Cmax is 2260 ng/mL and the half-life was 1.54 h. Further, in data set [1] (setting [2]), the AUC(0-inf) came to 2100 ng·h/mL, the clearance was found to be 7.9 mL/min/kg and the half-life was 1.47 h. The IC50 against ROS1 was determined as 0.36 nM.
Take `C[C@H]1Nc2ccn3nc(N)c(c3n2)C(=O)NC[C@@]2(C)Cc3cc(F)cc1c3O2` [Example 25, (3R,11R)-16-amino-6-fluoro-3,11-dimethyl-10-oxa-2,13,17,18,21-pentaazapentacyclo[13.5.2.1^8,11.0^4,9. 0^18,22]tricosa-1(21),4,6,8,15(22),16,19-heptaen-14-one]: the bioavailability in data set [1] was 47%. Also, in data set [1] (5 mg/kg, oral intake), the AUC(0-inf) was 4850 ng·h/mL, the Cmax turned out to be 1050 ng/mL and the half-life was 3.15 h. Further, in data set [1] (setting [2]), the AUC(0-inf) was 2060 ng·h/mL, the clearance was determined as 8.11 mL/min/kg and the half-life was 1.54 h. Further, the IC50 against ROS1 was found to be 0.84 nM.
